According to PubChem BioAssay (NCI):
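Method: 48-hour compound exposure of cells in 96-well plates, five concentrations, linear interpolation of endpoints. GI50 marks 50% less growth. TGI marks complete inhibition of growth.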

Experiments:
Experiment in all cases: growth of human tumour cells (NCI), 48 h
[1] = system: U251 CNS
[2] = system: SR leukemia
[3] = system: SK-MEL-2 melanoma
[4] = system: T-47D breast
[5] = system: A549 NSCLC
[6] = system: BT-549 breast
[7] = system: HT29 colon
[8] = system: HL-60(TB) leukemia
[9] = system: HCT-15 colon
[10] = system: SF-539 CNS
[11] = system: SK-MEL-28 melanoma
[12] = system: SF-295 CNS
[13] = system: SW-620 colon
[14] = system: K-562 leukemia
[15] = system: DU-145 prostate
[16] = system: PC-3 prostate
[17] = system: MDA-MB-435
[18] = system: UACC-62 melanoma
[19] = system: HOP-92 NSCLC
[20] = system: MCF7 breast
[21] = system: SK-MEL-5 melanoma
[22] = system: NCI-H226 lung
[23] = system: NCI/ADR-RES ovarian
[24] = system: IGROV1 ovarian
[25] = system: OVCAR-5 ovarian
[26] = system: MOLT-4 leukemia
[27] = system: EKVX NSCLC
[28] = system: SF-268 CNS
[29] = system: SN12C renal
[30] = system: KM12 colon
[31] = system: HCT-116 colon
[32] = system: SK-OV-3 ovarian
[33] = system: UO-31 renal
[34] = system: M14 melanoma
[35] = system: A498 renal
[36] = system: HOP-62 NSCLC
[37] = system: SNB-75 CNS
[38] = system: TK-10 renal
[39] = system: OVCAR-8 ovarian
[40] = system: LOX IMVI melanoma
[41] = system: OVCAR-4 ovarian
[42] = system: COLO 205 colon
[43] = system: NCI-H460 lung
[44] = system: MDA-MB-231 breast
[45] = system: SNB-19 CNS
[46] = system: MALME-3M melanoma
[47] = system: HS 578T breast
[48] = system: NCI-H23 lung
[49] = system: MDA-MB-468 breast
[50] = system: RXF 393 renal
[51] = system: NCI-H522 lung
[52] = system: UACC-257 melanoma
[53] = system: 786-0 renal
[54] = system: OVCAR-3 ovarian
[55] = system: RPMI-8226 leukemia
[56] = system: CCRF-CEM leukemia
[57] = system: CAKI-1 renal
[58] = system: ACHN renal
[59] = system: HCC-2998 colon

In the case of `NS(=O)(=O)c1ccc(N=Nc2c(O)n(CC(=O)Nc3ccccc3Cl)c3ccccc23)cc1`, the GI50 [1] is reported as 2.81 µM, the TGI [1] is reported as 9.62 µM and the GI50 [2] is reported as 2.82 µM. The TGI [2] was over 100 µM, the GI50 [3] was 3.95 µM and the TGI [3] was 21.1 µM. For the same compound, the GI50 [4] was 2.95 µM, the TGI [4] was 34.5 µM and the GI50 [5] was 2.91 µM. The TGI [5] was 10.3 µM, the GI50 [6] was 2.26 µM and the TGI [6] was 6.79 µM. It also gave a GI50 [7] of 2.04 µM, a TGI [7] of 4.11 µM and a GI50 [8] of 2.38 µM. The TGI [8] was 7.68 µM, the GI50 [9] was 3 µM and the TGI [9] was 15.4 µM. For the same compound, the GI50 [10] was 1.7 µM, the TGI [10] was 4.17 µM and the GI50 [11] was 2.96 µM. The TGI [11] was 12.5 µM, the GI50 [12] was 1.67 µM and the TGI [12] was 3.58 µM. The GI50 [13] was 2.93 µM, the TGI [13] was 10.9 µM and the GI50 [14] was 3.66 µM. For the same compound, the TGI [14] was over 100 µM, the GI50 [15] was 5.34 µM and the TGI [15] was 23.1 µM. For the same compound, the GI50 [16] was 2.76 µM, the TGI [16] was 29.2 µM and the GI50 [17] was 2.61 µM. For the same compound, the TGI [17] was 19.4 µM, the GI50 [18] was 1.81 µM and the TGI [18] was 5.88 µM. The GI50 [19] was 2.15 µM, the TGI [19] was 6.45 µM and the GI50 [20] was 1.94 µM. It also gave a TGI [20] of 4.63 µM, a GI50 [21] of 2.12 µM and a TGI [21] of 5.11 µM. It also gave a GI50 [22] of 2.5 µM, a TGI [22] of 8.45 µM and a GI50 [23] of 3.93 µM. For the same compound, the TGI [23] was 50.3 µM, the GI50 [24] was 4.59 µM and the TGI [24] was 19.1 µM. The GI50 [25] was 4.3 µM, the TGI [25] was 22.7 µM and the GI50 [26] was 3.19 µM. It also gave a TGI [26] of 31.8 µM, a GI50 [27] of 4.09 µM and a TGI [27] of 36.1 µM. For the same compound, the GI50 [28] was 3.19 µM, the TGI [28] was 21.9 µM and the GI50 [29] was 3.03 µM. For the same compound, the TGI [29] was 16.1 µM, the GI50 [30] was 2.93 µM and the TGI [30] was 12 µM. The GI50 [31] was 2.94 µM, the TGI [31] was 12.4 µM and the GI50 [32] was 2.54 µM. It also gave a TGI [32] of 8.74 µM, a GI50 [33] of 1.72 µM and a TGI [33] of 6.81 µM. It also gave a GI50 [34] of 3.33 µM, a TGI [34] of 30.5 µM and a GI50 [35] of 3.64 µM. The TGI [35] was 16 µM, the GI50 [36] was 2.75 µM and the TGI [36] was 12.7 µM. It also gave a GI50 [37] of 2.01 µM, a TGI [37] of 14.4 µM and a GI50 [38] of 10.8 µM. For the same compound, the TGI [38] was 34.5 µM, the GI50 [39] was 2.49 µM and the TGI [39] was 6.85 µM. It also gave a GI50 [40] of 3.28 µM, a TGI [40] of 15.1 µM and a GI50 [41] of 4.57 µM. The TGI [41] was 55.5 µM, the GI50 [42] was 2.05 µM and the TGI [42] was 4.14 µM. The GI50 [43] was 3.1 µM, the TGI [43] was 10.8 µM and the GI50 [44] was 3.34 µM. It also gave a TGI [44] of 16 µM, a GI50 [45] of 4.74 µM and a TGI [45] of 24.7 µM. The GI50 [46] was 1.89 µM, the TGI [46] was 6.91 µM and the GI50 [47] was 3.23 µM. For the same compound, the TGI [47] was over 100 µM, the GI50 [48] was 3.19 µM and the TGI [48] was 12.2 µM. It also gave a GI50 [49] of 1.81 µM, a TGI [49] of 3.8 µM and a GI50 [50] of 2.14 µM. For the same compound, the TGI [50] was 5.74 µM, the GI50 [51] was 2.78 µM and the TGI [51] was 15.3 µM. The GI50 [52] was 2.89 µM, the TGI [52] was 9.83 µM and the GI50 [53] was 3.26 µM. The TGI [53] was 12 µM, the GI50 [54] was 2.56 µM and the TGI [54] was 11.5 µM. The GI50 [55] was 3.06 µM, the TGI [55] was over 100 µM and the GI50 [56] was 3.58 µM. For the same compound, the TGI [56] was 23.2 µM, the GI50 [57] was 1.89 µM and the TGI [57] was 8.37 µM. The GI50 [58] was 2.21 µM, the TGI [58] was 6.89 µM and the GI50 [59] was 2.38 µM. For the same compound, the TGI [59] was 6.35 µM.
